Assays:
[1] = biological target: GDP-bound KRAS wild-type protein (Homo sapiens, UniProt P01116); assay: Binding to KRAS by surface plasmon resonance (SPR), dissociation constant KD; conditions: Single Cycle Kinetics, 1:1 binding model
Method in brief: (§1)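 SPR, 30°C: Avi-biotin RAS·GDP captured via Biotin CAPture (~100–300 RU); running buffer HBS pH 7.4, 1 mM DTT, 10 mM MgCl2, 0.01% Tween 20, 10 µM GDP, 4% DMSO. Single-cycle kinetics, 100 µL/min, 75 s injections; 1:1 model → KD.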

[2] = biological target: GDP-bound NRAS wild-type protein (Homo sapiens, UniProt P01111); assay: Binding to NRAS by surface plasmon resonance (SPR), KD and KD ratio to KRAS; conditions: ratio of KD with respect to GDP-bound NRAS wild-type protein to KD with respect to KRAS
Method in brief: as §1

HRAS wild-type protein = HRAS wild-type protein (Homo sapiens, UniProt P01112); assay: Binding to HRAS by surface plasmon resonance (SPR), KD and KD ratio to KRAS; conditions: ratio of KD with respect to HRAS wild-type protein to KD with respect to KRAS
Method in brief: as §1

[3] = tested on: human lung cancer strain NCI-H441; assay: NCI-H441 cell proliferation inhibitory activity (CellTiter-Glo, 4 days); assay type: cell-based; conditions: 50% proliferation inhibitory concentration, four days, read-out: NCl-H441 IC50
Method in brief: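 Proliferation was scored by […] measured after the reagent was added to cultures kept at 37°C in 5% carbon dioxide.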

HRAS wild-type protein, sequence (P01112 whole entry): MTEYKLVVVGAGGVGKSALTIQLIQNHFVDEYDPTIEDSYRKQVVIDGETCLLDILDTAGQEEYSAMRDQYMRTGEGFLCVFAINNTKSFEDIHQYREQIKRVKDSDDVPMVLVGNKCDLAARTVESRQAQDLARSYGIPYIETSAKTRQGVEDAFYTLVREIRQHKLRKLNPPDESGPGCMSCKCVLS
GDP-bound NRAS wild-type protein, sequence (P01111 whole entry): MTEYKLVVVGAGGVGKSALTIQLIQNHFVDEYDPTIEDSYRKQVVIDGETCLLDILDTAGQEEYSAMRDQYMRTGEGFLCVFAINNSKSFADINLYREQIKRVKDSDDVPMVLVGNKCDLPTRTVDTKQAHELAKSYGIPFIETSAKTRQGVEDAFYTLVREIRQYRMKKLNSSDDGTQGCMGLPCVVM
GDP-bound KRAS wild-type protein, sequence (P01116 1-188 isoform P01116-2): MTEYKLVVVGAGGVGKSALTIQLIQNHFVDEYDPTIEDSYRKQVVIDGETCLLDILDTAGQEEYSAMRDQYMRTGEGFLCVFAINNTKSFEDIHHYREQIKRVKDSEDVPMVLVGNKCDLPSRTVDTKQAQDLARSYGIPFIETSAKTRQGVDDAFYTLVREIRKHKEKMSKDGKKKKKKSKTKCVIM

SMILES	Kd [1]	IC50 [3]	NRAS /KRAS [2]	HRAS /KRAS (HRAS wild-type protein)
CCO[C@@H]1C[C@H]2C(=O)NC3(CCC3)C(=O)N(C)[C@@H](C3CCCC3)C(=O)N(C)[C@H](C(=O)N3CCOCC3)CC(=O)N(C)[C@@H](Cc3cccs3)C(=O)N[C@@H]([C@@H](C)CC)C(=O)N(C)CC(=O)N(C)[C@H]3CCCCCN(C3=O)[C@@H](Cc3ccc(F)cc3)C(=O)N(C)CC(=O)N[C@@H](CCc3cc(F)c(C(F)(F)F)c(F)c3)C(=O)N2C1 [PP1183]	0.26 nM	27.8 nM	B (a compound having 3 or more and less than 10 is denoted as B)	B (a compound having 3 or more and less than 10 is denoted as B)
CCO[C@@H]1C[C@H]2C(=O)NC3(CCC3)C(=O)N(C)[C@@H](C3CCCC3)C(=O)N(C)[C@H](C(=O)N3CCOCC3)CC(=O)N(C)[C@@H](Cc3ccsc3)C(=O)N[C@@H]([C@@H](C)CC)C(=O)N(C)CC(=O)N(C)[C@H]3CCCCCN(C3=O)[C@@H](Cc3ccc(F)cc3)C(=O)N(C)CC(=O)N[C@@H](CCc3cc(F)c(C(F)(F)F)c(F)c3)C(=O)N2C1 [PP1184]	0.16 nM	91.9 nM	B (a compound having 3 or more and less than 10 is denoted as B)	B (a compound having 3 or more and less than 10 is denoted as B)
CCO[C@@H]1C[C@H]2C(=O)NC3(CCC3)C(=O)N(C)[C@@H](C3CCCC3)C(=O)N(C)[C@H](C(=O)N3CCOCC3)CC(=O)N(C)[C@@H](Cc3ccccc3C#N)C(=O)N[C@@H]([C@@H](C)CC)C(=O)N(C)CC(=O)N(C)[C@H]3CCCCCN(C3=O)[C@@H](Cc3ccc(F)cc3)C(=O)N(C)CC(=O)N[C@@H](CCc3cc(F)c(C(F)(F)F)c(F)c3)C(=O)N2C1 [PP1185]	0.5 nM	175 nM	B (a compound having 3 or more and less than 10 is denoted as B)	B (a compound having 3 or more and less than 10 is denoted as B)
CCO[C@@H]1C[C@H]2C(=O)NC3(CCC3)C(=O)N(C)[C@@H](C3CCCC3)C(=O)N(C)[C@H](C(=O)N3CCOCC3)CC(=O)N(C)[C@@H](Cc3ccc(C#N)cc3)C(=O)N[C@@H]([C@@H](C)CC)C(=O)N(C)CC(=O)N(C)[C@H]3CCCCCN(C3=O)[C@@H](Cc3ccc(F)cc3)C(=O)N(C)CC(=O)N[C@@H](CCc3cc(F)c(C(F)(F)F)c(F)c3)C(=O)N2C1 [PP1187]	0.12 nM	52.3 nM	B (a compound having 3 or more and less than 10 is denoted as B)	B (a compound having 3 or more and less than 10 is denoted as B)
CCO[C@@H]1C[C@H]2C(=O)NC3(CCC3)C(=O)N(C)[C@@H](C3CCCC3)C(=O)N(C)[C@H](C(=O)N3CCOCC3)CC(=O)N(C)[C@@H](Cc3ccc(Cl)c(Cl)c3)C(=O)N[C@@H]([C@@H](C)CC)C(=O)N(C)CC(=O)N(C)[C@H]3CCCCCN(C3=O)[C@@H](Cc3ccc(F)cc3)C(=O)N(C)CC(=O)N[C@@H](CCc3cc(F)c(C(F)(F)F)c(F)c3)C(=O)N2C1 [PP1188]	0.43 nM	33.5 nM	B (a compound having 3 or more and less than 10 is denoted as B)	B (a compound having 3 or more and less than 10 is denoted as B)
CCO[C@@H]1C[C@H]2C(=O)NC3(CCC3)C(=O)N(C)[C@@H](C(CC)CC)C(=O)N(C)[C@H](C(=O)N(C)C)CC(=O)N(C)[C@@H](C)C(=O)N[C@@H]([C@@H](C)CC)C(=O)N(C)CC(=O)N(C)[C@H]3C/C=C\CCN(C3=O)[C@@H](Cc3ccc(C(F)(F)F)cc3)C(=O)N(C)CC(=O)N[C@@H](CCc3cc(F)c(C(F)(F)F)c(F)c3)C(=O)N2C1 [PP1199]	0.17 nM	39.1 nM	A (a compound having 10 or more and less than 20 is denoted as A)	A (a compound having 10 or more and less than 20 is denoted as A)
CCO[C@@H]1C[C@H]2C(=O)NC3(CCC3)C(=O)N(C)[C@@H](C(CC)CC)C(=O)N(C)[C@H](C(=O)N(C)C)CC(=O)N(C)[C@@H](CC)C(=O)N[C@@H]([C@@H](C)CC)C(=O)N(C)CC(=O)N(C)[C@H]3C/C=C\CCN(C3=O)[C@@H](Cc3ccc(C(F)(F)F)cc3)C(=O)N(C)CC(=O)N[C@@H](CCc3cc(F)c(C(F)(F)F)c(F)c3)C(=O)N2C1 [PP1200]	0.2 nM	19.2 nM	AA (a compound having 20 or more is denoted as AA)	A (a compound having 10 or more and less than 20 is denoted as A)

Further lines, with some results ahead:

Kd [1]	IC50 [3]	SMILES	NRAS /KRAS [2]	HRAS /KRAS (HRAS wild-type protein)
0.16 nM	23.5 nM	CCO[C@@H]1C[C@H]2C(=O)NC3(CCC3)C(=O)N(C)[C@@H](C3CCCC3)C(=O)N(C)[C@H](C(=O)N3CCOCC3)CC(=O)N(C)[C@@H](C)C(=O)N[C@@H]([C@@H](C)CC)C(=O)N(C)CC(=O)N(C)[C@H]3CCCCCN(C3=O)[C@@H](Cc3ccc(F)cc3)C(=O)N(C)CC(=O)N[C@@H](CCc3cc(F)c(C(F)(F)F)c(F)c3)C(=O)N2C1 [PP1175]	B (a compound having 3 or more and less than 10 is denoted as B)	B (a compound having 3 or more and less than 10 is denoted as B)
0.081 nM	32.5 nM	CCO[C@@H]1C[C@H]2C(=O)NC3(CCC3)C(=O)N(C)[C@@H](C3CCCC3)C(=O)N(C)[C@H](C(=O)N3CCOCC3)CC(=O)N(C)[C@@H](CC(F)F)C(=O)N[C@@H]([C@@H](C)CC)C(=O)N(C)CC(=O)N(C)[C@H]3CCCCCN(C3=O)[C@@H](Cc3ccc(F)cc3)C(=O)N(C)CC(=O)N[C@@H](CCc3cc(F)c(C(F)(F)F)c(F)c3)C(=O)N2C1 [PP1177]	B (a compound having 3 or more and less than 10 is denoted as B)	B (a compound having 3 or more and less than 10 is denoted as B)
0.16 nM	26.3 nM	CCO[C@@H]1C[C@H]2C(=O)NC3(CCC3)C(=O)N(C)[C@@H](C3CCCC3)C(=O)N(C)[C@H](C(=O)N3CCOCC3)CC(=O)N(C)[C@@H](CC3CC3)C(=O)N[C@@H]([C@@H](C)CC)C(=O)N(C)CC(=O)N(C)[C@H]3CCCCCN(C3=O)[C@@H](Cc3ccc(F)cc3)C(=O)N(C)CC(=O)N[C@@H](CCc3cc(F)c(C(F)(F)F)c(F)c3)C(=O)N2C1 [PP1178]	B (a compound having 3 or more and less than 10 is denoted as B)	B (a compound having 3 or more and less than 10 is denoted as B)
0.066 nM	16.1 nM	CCO[C@@H]1C[C@H]2C(=O)NC3(CCC3)C(=O)N(C)[C@@H](C3CCCC3)C(=O)N(C)[C@H](C(=O)N(C)C)CC(=O)N(C)[C@@H](C)C(=O)N[C@@H]([C@@H](C)CC)C(=O)N(C)CC(=O)N(C)[C@H]3CCCCCN(C3=O)[C@@H](Cc3ccc(F)cc3)C(=O)N(C)CC(=O)N[C@@H](CCc3cc(F)c(C(F)(F)F)c(F)c3)C(=O)N2C1 [PP1189]	B (a compound having 3 or more and less than 10 is denoted as B)	B (a compound having 3 or more and less than 10 is denoted as B)
0.092 nM	15.5 nM	CCO[C@@H]1C[C@H]2C(=O)NC3(CCC3)C(=O)N(C)[C@@H](C3CCCC3)C(=O)N(C)[C@H](C(=O)N(C)C)CC(=O)N(C)[C@@H](CC)C(=O)N[C@@H]([C@@H](C)CC)C(=O)N(C)CC(=O)N(C)[C@H]3CCCCCN(C3=O)[C@@H](Cc3ccc(F)cc3)C(=O)N(C)CC(=O)N[C@@H](CCc3cc(F)c(C(F)(F)F)c(F)c3)C(=O)N2C1 [PP1190]	B (a compound having 3 or more and less than 10 is denoted as B)	B (a compound having 3 or more and less than 10 is denoted as B)
0.056 nM	13 nM	CCO[C@@H]1C[C@H]2C(=O)NC3(CCC3)C(=O)N(C)[C@@H](C3CCCC3)C(=O)N(C)[C@H](C(=O)N(C)C)CC(=O)N(C)[C@@H](CC(F)F)C(=O)N[C@@H]([C@@H](C)CC)C(=O)N(C)CC(=O)N(C)[C@H]3CCCCCN(C3=O)[C@@H](Cc3ccc(F)cc3)C(=O)N(C)CC(=O)N[C@@H](CCc3cc(F)c(C(F)(F)F)c(F)c3)C(=O)N2C1 [PP1191]	A (a compound having 10 or more and less than 20 is denoted as A)	B (a compound having 3 or more and less than 10 is denoted as B)
0.04 nM	50.8 nM	CCO[C@@H]1C[C@H]2C(=O)NC3(CCC3)C(=O)N(C)[C@@H](C3CCCC3)C(=O)N(C)[C@H](C(=O)N(C)C)CC(=O)N(C)[C@@H](Cc3cccnc3)C(=O)N[C@@H]([C@@H](C)CC)C(=O)N(C)CC(=O)N(C)[C@H]3CCCCCN(C3=O)[C@@H](Cc3ccc(F)cc3)C(=O)N(C)CC(=O)N[C@@H](CCc3cc(F)c(C(F)(F)F)c(F)c3)C(=O)N2C1 [PP1196]	B (a compound having 3 or more and less than 10 is denoted as B)	B (a compound having 3 or more and less than 10 is denoted as B)
